Patent US10941136B2, “Quinazoline derivative or its salt and pharmaceutical composition comprising the same” (YUHAN CORPORATION, priority 2016, dated 2021)

What was measured:
Assay type in all cases: biochemical
PI3Kγ (p120γ)(h) = biological target: T1, PI3Kγ (p120γ)(h) (Homo sapiens, UniProt P48736); test: PI3K-HTRF in vitro enzyme assay, PI3Kγ; settings: enzyme 0.4 μg/ml
T1 construct: purchased Upstate (Millipore Co) #14-558
Description: (§1) The compounds of the present invention were tested for the activity of phosphatidylinositol 3-kinase delta (PI3K) by using a PI3K enzyme-homogeneous time resolved fluorescence (PI3K-HTRF) kit, which is available under Upstate™ kit (Millipore Co, Billerica, Mass., USA). This kit system measures indirectly the amount of PIP3 produced via PI3K by detecting competitive inhibition of fluorescence complex formation.
(§2) There were used three kinds of buffer solutions, i.e., reaction buffer, stop solution, and detection solution. The reaction buffer was prepared by diluting Reaction Buffer (provided in Update™ kit) with distilled water 4 times and adding DTT to a concentration of 5 mM. The stop solution was prepared by combining STOP A and B Solutions (provided in Update™ kit) in a ratio of 3:1. The detection solution was prepared by combining Detection Solution A, B and C (provided in Update™ kit) in a ratio of 1:1:18. A substrate solution and an ATP solution were prepared by diluting the 1 mM PIP2 (phosphatidyl inositol 4,5 bi-phosphate) stock solution (provided in Update™ kit) and 10 mM ATP (Sigma-aldrich Co., St. Louis, Mo., USA) stock solution with the reaction buffer to concentrations of 20 μM and 40 μM, respectively. An enzyme solution was prepared by diluting PI3Kδ (#14˜604; Upstate™ kit) with the substrate solution to the concentration of 0.2 μg/ml (final reaction concentration: 0.1 μg/ml).
(§3) The test groups were prepared by dissolving each compound in 100% DMSO at 40× the final concentration and then diluting 10-fold with the reaction buffer. 5 μl of each diluted test group solution was transferred to a 384 well low flange white flat bottom microplate (#3572, Corning Life Sciences, Lowell, Mass., USA). We performed centrifuge (1 minute, 1000 rpm) and shaking for 2 minutes after every solution-adding step in this experiment. Next, 10 μl of the enzyme solution was added to each well. A mixed solution of the substrate solution (10 μl) plus 5 μl of the 100% DMSO diluted solution without test compound (i.e., 10% DMSO solution) was used as a negative control. And also, a mixed solution of enzyme solution (10 μl) plus 5 μl of the 100% DMSO diluted solution without test compound (i.e., 10% DMSO solution) was used as a positive control. This plate was pre-incubated for 10 minutes in a 25° C. incubator. After the pre-incubation, the phosphorylation reaction was induced by adding 5 μl of the ATP solution and the plate was incubated for 30 minutes in a 25° C. incubator. This enzyme reaction was stopped by 5 μl of the stop solution and then 5 μl of the detection solution was added thereto. To obtain enough fluorescence responses, the plate was incubated for 2 hours in a 25° C. incubator protected from light.
(§4) The time-resolved fluorescence resonance energy transfer (TR-FRET) rate was measured (emission wavelength: 665 nm, 620 nm, excitation wavelength: 313 nm) by using a Flexstation3 Micro plate reader (Molecular Devices, USA). TR-FRET Rate was calculated based on the Equation 1 and using these TR-FRET Rates, % inhibition rate of each compound was calculated based on the Equation 2. The IC50 values, i.e., the concentration of a test compound that inhibits 50% of PI3Kδ activity in vitro, are generated by Softmax program (Molecular Devices, USA). TR-FRET Rate=(Signal at 665 nm emission wavelength/Signal at 620 nm emission wavelength)×10000 <Equation 1> % Inhibition Rate=[(TR-FRET Rate of the test group−TR-FRET Rate of the positive control group)/(TR-FRET Rate of the negative control group−TR-FRET Rate of the positive control group)]×100 <Equation 2>
(§5) The compounds of the present invention were assayed for the activities of PI3K subtypes, i.e., PI3Kα, PI3Kβ and PI3Kγ, using the same procedures as in Experimental Example 1. […]

PI3Kα (p110α/p85α)(h) = biological target: T2, PI3Kα (p110α/p85α)(h) (Homo sapiens, UniProt P42336); test: PI3K-HTRF in vitro enzyme assay, PI3Kα; settings: enzyme 0.1 μg/ml
T2 construct: purchased Upstate (Millipore Co) #14-602
Description: as §1, §2, §3, §4, §5

PI3Kβ (p110β/p85α)(h) = biological target: T3, PI3Kβ (p110β/p85α)(h) (Homo sapiens, UniProt P42338); test: PI3K-HTRF in vitro enzyme assay, PI3Kβ; settings: enzyme 0.4 μg/ml
T3 construct: purchased Upstate (Millipore Co) #14-603
Description: as §1, §2, §3, §4, §5

PI3Kδ (p110δ/p85α)(h) = biological target: T4, PI3Kδ (p110δ/p85α)(h) (Homo sapiens, UniProt O00329); test: PI3K-HTRF in vitro enzyme assay, PI3Kδ; settings: enzyme 0.1 μg/ml
T4 construct: purchased Upstate (Millipore Co, Billerica, Mass., USA) #14˜604
Description: as §1, §2, §3, §4

T4 sequence (O00329 whole entry): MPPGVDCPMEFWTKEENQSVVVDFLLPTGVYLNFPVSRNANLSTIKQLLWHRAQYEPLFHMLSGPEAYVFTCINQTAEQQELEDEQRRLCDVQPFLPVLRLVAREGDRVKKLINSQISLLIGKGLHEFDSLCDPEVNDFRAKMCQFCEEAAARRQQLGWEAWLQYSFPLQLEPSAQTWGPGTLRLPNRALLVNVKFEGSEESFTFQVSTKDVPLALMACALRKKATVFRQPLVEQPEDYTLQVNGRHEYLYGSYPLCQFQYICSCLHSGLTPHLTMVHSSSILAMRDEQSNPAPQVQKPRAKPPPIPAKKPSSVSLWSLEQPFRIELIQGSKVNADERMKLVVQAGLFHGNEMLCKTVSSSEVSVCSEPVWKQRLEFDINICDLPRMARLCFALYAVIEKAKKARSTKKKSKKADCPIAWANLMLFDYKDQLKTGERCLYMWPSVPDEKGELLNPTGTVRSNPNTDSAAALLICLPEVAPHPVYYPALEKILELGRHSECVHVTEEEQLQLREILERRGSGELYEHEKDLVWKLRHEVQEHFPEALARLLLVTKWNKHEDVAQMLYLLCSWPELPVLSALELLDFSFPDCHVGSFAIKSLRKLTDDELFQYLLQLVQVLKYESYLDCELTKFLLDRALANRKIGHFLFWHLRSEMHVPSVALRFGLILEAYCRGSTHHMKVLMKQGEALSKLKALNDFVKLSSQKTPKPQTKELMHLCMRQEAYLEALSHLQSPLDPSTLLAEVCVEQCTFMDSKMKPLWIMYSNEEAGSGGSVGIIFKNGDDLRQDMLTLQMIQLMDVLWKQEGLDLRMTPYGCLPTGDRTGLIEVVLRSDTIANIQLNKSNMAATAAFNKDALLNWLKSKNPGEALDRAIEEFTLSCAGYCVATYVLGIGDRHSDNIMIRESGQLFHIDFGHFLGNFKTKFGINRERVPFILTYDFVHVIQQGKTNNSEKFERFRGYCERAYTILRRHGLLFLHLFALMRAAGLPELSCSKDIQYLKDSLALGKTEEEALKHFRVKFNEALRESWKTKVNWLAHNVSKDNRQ
T4 sequence (P27986 whole entry partner): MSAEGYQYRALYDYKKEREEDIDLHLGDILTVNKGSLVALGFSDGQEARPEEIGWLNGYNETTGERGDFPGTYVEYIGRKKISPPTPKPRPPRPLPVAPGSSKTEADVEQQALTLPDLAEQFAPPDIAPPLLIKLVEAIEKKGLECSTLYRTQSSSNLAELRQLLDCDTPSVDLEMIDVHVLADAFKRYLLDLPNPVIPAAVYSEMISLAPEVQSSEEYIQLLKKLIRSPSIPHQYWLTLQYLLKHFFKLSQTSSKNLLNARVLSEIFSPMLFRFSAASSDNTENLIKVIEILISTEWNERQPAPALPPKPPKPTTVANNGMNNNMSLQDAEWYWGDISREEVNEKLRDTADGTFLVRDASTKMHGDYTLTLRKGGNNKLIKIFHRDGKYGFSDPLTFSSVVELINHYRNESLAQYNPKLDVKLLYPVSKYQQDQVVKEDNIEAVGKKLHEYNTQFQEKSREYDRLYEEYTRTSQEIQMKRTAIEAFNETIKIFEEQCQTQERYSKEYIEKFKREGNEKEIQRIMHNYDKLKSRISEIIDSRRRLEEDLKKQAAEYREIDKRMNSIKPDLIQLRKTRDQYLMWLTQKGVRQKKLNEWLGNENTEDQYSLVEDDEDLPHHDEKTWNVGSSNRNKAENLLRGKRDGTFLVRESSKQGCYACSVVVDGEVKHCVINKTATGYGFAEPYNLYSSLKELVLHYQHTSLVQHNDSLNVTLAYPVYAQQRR
T1 sequence (P48736 whole entry): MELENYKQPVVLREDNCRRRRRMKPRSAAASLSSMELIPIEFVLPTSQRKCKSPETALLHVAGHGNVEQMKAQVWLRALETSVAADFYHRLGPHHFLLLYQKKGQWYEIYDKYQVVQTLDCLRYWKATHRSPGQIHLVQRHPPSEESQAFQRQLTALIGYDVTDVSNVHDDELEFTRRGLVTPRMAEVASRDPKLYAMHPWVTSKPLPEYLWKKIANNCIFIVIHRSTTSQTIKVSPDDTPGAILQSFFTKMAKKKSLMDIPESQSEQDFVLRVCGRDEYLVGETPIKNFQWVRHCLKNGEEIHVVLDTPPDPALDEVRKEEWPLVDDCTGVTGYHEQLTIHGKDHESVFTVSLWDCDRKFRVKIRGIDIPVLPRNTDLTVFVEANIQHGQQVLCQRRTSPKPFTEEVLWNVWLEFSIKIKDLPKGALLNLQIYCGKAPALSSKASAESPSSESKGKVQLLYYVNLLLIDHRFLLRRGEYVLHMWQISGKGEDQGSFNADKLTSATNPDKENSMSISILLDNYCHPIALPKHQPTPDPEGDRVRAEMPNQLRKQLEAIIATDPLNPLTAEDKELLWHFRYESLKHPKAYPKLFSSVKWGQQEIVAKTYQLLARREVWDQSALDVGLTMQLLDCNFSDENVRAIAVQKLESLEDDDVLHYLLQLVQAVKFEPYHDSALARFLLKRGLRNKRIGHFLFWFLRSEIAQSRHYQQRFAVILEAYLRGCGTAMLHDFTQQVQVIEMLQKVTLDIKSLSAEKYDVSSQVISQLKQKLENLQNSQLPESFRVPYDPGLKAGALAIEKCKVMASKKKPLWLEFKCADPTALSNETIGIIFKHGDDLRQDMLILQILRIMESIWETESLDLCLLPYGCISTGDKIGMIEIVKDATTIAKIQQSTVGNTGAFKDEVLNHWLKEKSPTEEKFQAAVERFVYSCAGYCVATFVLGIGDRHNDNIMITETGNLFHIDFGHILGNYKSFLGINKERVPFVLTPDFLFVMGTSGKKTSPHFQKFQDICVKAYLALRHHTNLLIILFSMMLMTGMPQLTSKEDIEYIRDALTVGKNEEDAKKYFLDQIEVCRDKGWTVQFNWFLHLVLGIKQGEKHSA
T2 sequence (P42336 whole entry): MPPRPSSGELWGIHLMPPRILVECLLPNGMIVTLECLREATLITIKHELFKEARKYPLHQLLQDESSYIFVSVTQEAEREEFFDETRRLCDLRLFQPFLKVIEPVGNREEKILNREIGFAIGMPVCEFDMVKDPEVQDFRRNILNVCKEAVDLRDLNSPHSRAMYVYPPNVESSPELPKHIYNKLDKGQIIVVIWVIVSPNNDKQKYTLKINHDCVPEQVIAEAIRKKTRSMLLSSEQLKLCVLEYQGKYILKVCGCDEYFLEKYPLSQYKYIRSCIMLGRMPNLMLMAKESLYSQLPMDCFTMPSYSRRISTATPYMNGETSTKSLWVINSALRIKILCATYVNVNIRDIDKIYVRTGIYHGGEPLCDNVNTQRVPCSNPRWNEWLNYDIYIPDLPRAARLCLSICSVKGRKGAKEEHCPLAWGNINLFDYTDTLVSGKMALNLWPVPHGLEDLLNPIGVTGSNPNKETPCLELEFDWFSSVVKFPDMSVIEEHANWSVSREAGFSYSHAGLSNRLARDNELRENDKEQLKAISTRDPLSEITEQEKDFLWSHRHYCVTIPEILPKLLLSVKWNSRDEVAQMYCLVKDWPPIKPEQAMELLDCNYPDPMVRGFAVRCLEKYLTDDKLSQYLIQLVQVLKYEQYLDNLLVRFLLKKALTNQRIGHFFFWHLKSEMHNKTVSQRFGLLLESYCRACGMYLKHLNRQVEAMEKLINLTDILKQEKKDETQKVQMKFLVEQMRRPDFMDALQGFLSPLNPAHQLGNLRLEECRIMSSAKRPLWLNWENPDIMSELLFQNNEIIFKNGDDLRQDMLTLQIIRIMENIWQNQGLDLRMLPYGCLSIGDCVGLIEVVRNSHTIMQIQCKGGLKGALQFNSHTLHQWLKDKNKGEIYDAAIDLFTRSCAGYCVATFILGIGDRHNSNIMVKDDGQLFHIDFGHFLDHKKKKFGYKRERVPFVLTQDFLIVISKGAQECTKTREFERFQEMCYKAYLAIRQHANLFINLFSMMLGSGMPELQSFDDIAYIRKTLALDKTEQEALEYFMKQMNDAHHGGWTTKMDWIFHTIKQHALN
T2 sequence (P27986 whole entry partner): as the sequence (P27986 whole entry partner) above
T3 sequence (P42338 whole entry): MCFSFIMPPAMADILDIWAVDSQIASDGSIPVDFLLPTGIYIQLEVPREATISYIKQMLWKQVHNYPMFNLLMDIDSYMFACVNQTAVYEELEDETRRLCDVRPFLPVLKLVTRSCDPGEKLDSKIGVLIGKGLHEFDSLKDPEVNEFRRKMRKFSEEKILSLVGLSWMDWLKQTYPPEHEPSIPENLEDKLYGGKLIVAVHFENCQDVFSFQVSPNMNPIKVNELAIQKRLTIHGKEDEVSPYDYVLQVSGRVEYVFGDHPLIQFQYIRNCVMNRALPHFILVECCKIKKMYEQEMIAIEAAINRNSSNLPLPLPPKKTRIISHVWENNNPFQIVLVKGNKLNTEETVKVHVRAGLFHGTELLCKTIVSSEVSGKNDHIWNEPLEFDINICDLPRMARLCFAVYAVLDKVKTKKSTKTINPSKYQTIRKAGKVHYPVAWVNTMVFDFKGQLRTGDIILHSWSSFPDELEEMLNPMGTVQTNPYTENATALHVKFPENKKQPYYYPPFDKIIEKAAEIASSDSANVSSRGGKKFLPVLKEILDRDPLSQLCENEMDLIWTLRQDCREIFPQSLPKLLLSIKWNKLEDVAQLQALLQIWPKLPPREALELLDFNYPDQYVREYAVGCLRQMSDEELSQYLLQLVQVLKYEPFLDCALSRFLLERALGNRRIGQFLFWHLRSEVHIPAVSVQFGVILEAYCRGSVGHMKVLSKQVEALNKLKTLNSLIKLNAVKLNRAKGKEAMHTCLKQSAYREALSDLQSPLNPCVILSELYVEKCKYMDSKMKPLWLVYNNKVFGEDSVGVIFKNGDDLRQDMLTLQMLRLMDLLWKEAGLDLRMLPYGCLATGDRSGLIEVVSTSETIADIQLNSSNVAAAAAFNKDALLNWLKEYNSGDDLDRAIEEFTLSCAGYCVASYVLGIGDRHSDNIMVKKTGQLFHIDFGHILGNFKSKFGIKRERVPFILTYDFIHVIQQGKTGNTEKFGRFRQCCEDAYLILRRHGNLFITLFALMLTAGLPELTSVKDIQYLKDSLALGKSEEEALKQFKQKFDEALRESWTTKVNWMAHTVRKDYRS
T3 sequence (P27986 whole entry partner): as the sequence (P27986 whole entry partner) above

IC50 (PI3Kγ (p120γ)(h)) [nM] | IC50 (PI3Kα (p110α/p85α)(h)) [nM] | IC50 (PI3Kβ (p110β/p85α)(h)) [nM] | IC50 (PI3Kδ (p110δ/p85α)(h)) [nM] | SMILES
155 | 1240 | 6690 | 10 | COc1ncc(-c2cccc3cc([C@H](C)Nc4ncnc5ccc(C#N)cc45)n(-c4ccccc4)c(=O)c23)cn1 [Example 33, (S)-4-((1-(8-(2-methoxypyrimidin-5-yl)-1-oxo-2-phenyl-1,2-dihydroisoquinolin-3-yl)ethyl)amino)quinazoline-6-carbonitrile]
324 | 1350 | 7390 | 17 | CCOc1ncc(-c2cccc3cc([C@H](C)Nc4ncnc5ccc(C#N)cc45)n(-c4ccccc4)c(=O)c23)cn1 [Example 34, (S)-4-((1-(8-(2-ethoxypyrimidin-5-yl)-1-oxo-2-phenyl-1,2-dihydroisoquinolin-3-yl)ethyl)amino)quinazoline-6-carbonitrile]
93 | 673 | 5310 | 25 | C[C@H](Nc1ncnc2ccc(C#N)cc12)c1cc2cccc(-c3cnc(N(C)C)nc3)c2c(=O)n1-c1ccccc1 [Example 35, (S)-4-((1-(8-(2-(dimethylamino)pyrimidin-5-yl)-1-oxo-2-phenyl-1,2-dihydroisoquinolin-3-yl)ethyl)amino)quinazoline-6-carbonitrile]
67 | 418 | 8760 | 10 | C[C@H](Nc1ncnc2ccc(C#N)cc12)c1cc2cccc(-c3cnc(C4CC4)nc3)c2c(=O)n1-c1ccccc1 [Example 37, (S)-4-((1-(8-(2-cyclopropylpyrimidin-5-yl)-1-oxo-2-phenyl-1,2-dihydroisoquinolin-3-yl)ethyl)amino)quinazoline-6-carbonitrile]

Second part, the compound before the results:

SMILES | IC50 (PI3Kγ (p120γ)(h)) [nM] | IC50 (PI3Kα (p110α/p85α)(h)) [nM] | IC50 (PI3Kβ (p110β/p85α)(h)) [nM] | IC50 (PI3Kδ (p110δ/p85α)(h)) [nM]
C[C@H](Nc1ncnc2ccc(C#N)cc12)c1cc2cccc(-c3cncnc3)c2c(=O)n1-c1ccccc1 [Example 32, (S)-4-((1-(1-oxo-2-phenyl-8-(pyrimidin-5-yl)-1,2-dihydroisoquinolin-3-yl)ethyl)amino)quinazoline-6-carbonitrile] | 416 | 1730 | 4800 | 2
Cc1ncc(-c2cccc3cc([C@H](C)Nc4ncnc5ccc(C#N)cc45)n(-c4ccc(F)cc4)c(=O)c23)cn1 [Example 38, (S)-4-((1-(2-(4-fluorophenyl)-8-(2-methylpyrimidin-5-yl)-1-oxo-1,2-dihydroisoquinolin-3-yl)ethyl)amino)quinazoline-6-carbonitrile] | 67 | 635 | 9820 | 26
CCOc1ncc(-c2cccc3cc([C@H](CC)Nc4ncnc5ccc(C#N)cc45)n(-c4ccccc4)c(=O)c23)cn1 [Example 41, (S)-4-((1-(8-(2-ethoxypyrimidin-5-yl)-1-oxo-2-phenyl-1,2-dihydroisoquinolin-3-yl)propyl)amino)quinazoline-6-carbonitrile] | 489 | 909 | 9380 | 2
C[C@H](Nc1ncnc2cccc(F)c12)c1cc2cccc(-c3cnc(N)nc3)c2c(=O)n1-c1ccccc1 [Example 43, (S)-8-(2-aminopyrimidin-5-yl)-3-(1-((5-fluoroquinazolin-4-yl)amino)ethyl)-2-phenylisoquinolin-1(2H)-one] | 283 | 2670 | 8860 | 13
CC(C)[C@H](Nc1ncnc2cccc(F)c12)c1cc2cccc(-c3cnc(N)nc3)c2c(=O)n1-c1ccccc1 [Example 46, (S)-8-(2-aminopyrimidin-5-yl)-3-(1-((5-fluoroquinazolin-4-yl)amino)-2-methylpropyl)-2-phenylisoquinolin-1(2H)-one] | 1580 | 2950 | 7950 | 12
